Laboratory results as given in patent publication US5736510A, “Antibiotics 10381v, w, x,y, z1, z2, pre-b and t” (priority 1996, dated 1998).
“Also recorded” adds a separate entry of the source. Like-named read-outs stand apart in the source and are kept apart here.

What was measured:
Format in all cases: cell-based
C. perfringens = test system: C. perfringens; set-up: Minimal Inhibitory Concentration (bioactivity data): unit not given here; details: for M.I.C.: Table III, mass basis, no correction for purity; for Minimal Inhibitory Concentration (bioactivity data): Table IV (separate study)
S. faecalis = details: for M.I.C.: Table III, mass basis, no correction for purity; for Minimal Inhibitory Concentration (bioactivity data): Table IV (separate study)
S. bovis = details: strain JB1
B. fragilis = details: strain UC9370
B. thetaiotaomicron = details: strain UC9014
Protocol: (§1) The assay measures the ability of a compound to inhibit the growth of certain types of anaerobic bacteria which normally inhabit the gut of poultry, swine or cattle.
(§2) Two mg/ml solutions of the drugs to be tested are made in 10% v/v ethanol/water. This stock is then diluted to one mg per ml and then further diluted through a series of ten-two fold dilutions. At each concentration an aliquot is placed in a sterile petri plate. Nine volumes of molten agar are then added to each plate, mixed and allowed to harden at room temperature. These plates are then transferred to a Coy chamber and allowed to dry and equilibrate with the oxygen free atmosphere.
(§3) Organisms used for MIC testing are inoculated into broth media, and incubated 18-24 h at 39° C. prior to use. The cultures are then diluted to equal the turbidity of a 0.5 MacFarland barium sulfate standard, except for the porcine isolates P108-3C1, P105-1C3 and P105-1C4 which are diluted 1:1. All inoculations and dilutions are performed in the anaerobic chamber using broth media and syringe transfer through the butyl robber stoppers.
(§4) Freshly prepared and diluted cultures are loaded into the wells of a Steers replicator device. This apparatus can dispense ca 10 μl of each of 32 cultures onto the surface of the preincubated agar plates. One hour after the inoculation, the inoculum will have been absorbed and the plates are inverted and incubated at 38°-39° C. for 48 h. Plates are then removed from the chamber and the MIC for the test compounds determined. MIC's are reported as the lowest concentration of a compound which prevented detectable growth of a test organism on the agar plates. […] Thus, each set of test plates yields individual MIC values for each of the 32 test organisms.

E. lentum = details: strain L-34; Table IV (separate study)
B. fibrisolvens = details: for M.I.C.: Table III, mass basis, no correction for purity; for Minimal Inhibitory Concentration (bioactivity data): Table IV (separate study)
M. elsdenii = details: strain B159
L. multiparus = details: strain 40
S. ruminantium = details: for M.I.C.: Table III, mass basis, no correction for purity; for Minimal Inhibitory Concentration (bioactivity data): Table IV (separate study)
R. amylophilus = details: strain H18
R. flavefaciens = details: for M.I.C.: Table III, mass basis, no correction for purity; for Minimal Inhibitory Concentration (bioactivity data): Table IV (separate study)
E. ruminantium = details: strain GA195
P. ruminicola = details: strain 118B
F. necrophorum = details: for M.I.C.: Table III, mass basis, no correction for purity; for Minimal Inhibitory Concentration (bioactivity data): Table IV (separate study)
S. hyodysenteriae = test system: S. hyodysenteriae; set-up: unit not given here; details: Table IV (separate study)
Protocol: as §1, §2, §3, §4

[1] = test system: anaerobic bacteria which normally inhabit the gut of poultry, swine or cattle; assay: in vitro MIC assay, overall comparison of components across the test organisms
Protocol: as §1, §2, §3, §4

[2] = Table III, mass basis, no correction for purity

Compound: C=C(NC(=O)c1ccc2c(n1)-c1coc(n1)C(=C)NC(=O)C(=C)NC(=O)c1nc(oc1C)C(=CC)NC(=O)c1csc(n1)C(OC)NC(=O)c1nc(oc1C)C(=CC(C)O)NC(=O)C(C(C)O)NC(=O)c1csc-2n1)C(N)=O (stereo not drawn) [Antibiotic 10381y, 52-de[1-[[[1-(aminocarbonyl)ethenyl]amino]carbonyl]ethenyl]-sulfomycin I]
- M.I.C. (C. perfringens; strain 71A02): < 0.2 µg/mL
- Minimal Inhibitory Concentration (bioactivity data) (C. perfringens; strain 71A02): < 0.2
- M.I.C. (C. perfringens; strain A82-1): 0.8 µg/mL
- Minimal Inhibitory Concentration (bioactivity data) (C. perfringens; strain A82-1): 12.5
- M.I.C. (C. perfringens; strain A83-3): < 0.2 µg/mL
- Minimal Inhibitory Concentration (bioactivity data) (C. perfringens; strain A83-3): < 0.2
- M.I.C. (C. perfringens; strain A83-RKP): 0.4 µg/mL
- Minimal Inhibitory Concentration (bioactivity data) (C. perfringens; strain A83-RKP): < 0.2
- M.I.C. (C. perfringens; strain CCS1-11): 0.8 µg/mL
- Minimal Inhibitory Concentration (bioactivity data) (C. perfringens; strain CCS1-11): < 0.2
- M.I.C. (C. perfringens; strain CCS2-09): < 0.2 µg/mL
- Minimal Inhibitory Concentration (bioactivity data) (C. perfringens; strain CCS2-09): < 0.2
- M.I.C. (C. perfringens; strain P1051C3): 12.5 µg/mL
- Minimal Inhibitory Concentration (bioactivity data) (C. perfringens; strain P1051C3): 6.3
- M.I.C. (C. perfringens; strain P1083C1): < 0.2 µg/mL
- Minimal Inhibitory Concentration (bioactivity data) (C. perfringens; strain P1083C1): 0.8
- M.I.C. (C. perfringens; strain RF1B04): < 0.2 µg/mL
- Minimal Inhibitory Concentration (bioactivity data) (C. perfringens; strain RF1B04): < 0.2
- M.I.C. (C. perfringens; strain UC9452): < 0.2 µg/mL
- Minimal Inhibitory Concentration (bioactivity data) (C. perfringens; strain UC9452): 0.8
- M.I.C. (S. faecalis; strain 71A01): 6.3 µg/mL
- Minimal Inhibitory Concentration (bioactivity data) (S. faecalis; strain 71A01): 6.3
- M.I.C. (S. faecalis; strain CCS1-03): 1.6 µg/mL
- Minimal Inhibitory Concentration (bioactivity data) (S. faecalis; strain CCS1-03): 3.1
- M.I.C. (S. faecalis; strain P1051C4): 1.6 µg/mL
- Minimal Inhibitory Concentration (bioactivity data) (S. faecalis; strain P1051C4): 0.8
- M.I.C. (S. bovis; [2]): 0.4 µg/mL
- Minimal Inhibitory Concentration (bioactivity data) (S. bovis; Table IV (separate study)): 0.8
- M.I.C. (B. fragilis; [2]): 1.6 µg/mL
- Minimal Inhibitory Concentration (bioactivity data) (B. fragilis; Table IV (separate study)): 50.0
- M.I.C. (B. thetaiotaomicron; [2]): < 0.2 µg/mL
- Minimal Inhibitory Concentration (bioactivity data) (B. thetaiotaomicron; Table IV (separate study)): 50.0
- Minimal Inhibitory Concentration (bioactivity data) (E. lentum): < 0.2
- M.I.C. (B. fibrisolvens; strain 49): < 0.2 µg/mL
- Minimal Inhibitory Concentration (bioactivity data) (B. fibrisolvens; strain 49): 0.4
- M.I.C. (B. fibrisolvens; strain D1): < 0.2 µg/mL
- Minimal Inhibitory Concentration (bioactivity data) (B. fibrisolvens; strain D1): < 0.2
- M.I.C. (M. elsdenii; [2]): > 100.0 µg/mL
- Minimal Inhibitory Concentration (bioactivity data) (M. elsdenii; Table IV (separate study)): > 100
- M.I.C. (L. multiparus; [2]): < 0.2 µg/mL
- Minimal Inhibitory Concentration (bioactivity data) (L. multiparus; Table IV (separate study)): 12.5
- M.I.C. (S. ruminantium; strain GA31): 25.0 µg/mL
- Minimal Inhibitory Concentration (bioactivity data) (S. ruminantium; strain GA31): < 0.2
- M.I.C. (S. ruminantium; strain GA192): > 100.0 µg/mL
- Minimal Inhibitory Concentration (bioactivity data) (S. ruminantium; strain GA192): < 0.2
- M.I.C. (R. amylophilus; [2]): 100.0 µg/mL
- Minimal Inhibitory Concentration (bioactivity data) (R. amylophilus; Table IV (separate study)): < 0.2
- M.I.C. (R. flavefaciens; strain C94): 6.3 µg/mL
- Minimal Inhibitory Concentration (bioactivity data) (R. flavefaciens; strain C94): 0.8
- M.I.C. (R. flavefaciens; strain FD1): < 0.2 µg/mL
- Minimal Inhibitory Concentration (bioactivity data) (R. flavefaciens; strain FD1): 0.4
- M.I.C. (E. ruminantium; [2]): 6.3 µg/mL
- Minimal Inhibitory Concentration (bioactivity data) (E. ruminantium; Table IV (separate study)): 0.8
- M.I.C. (P. ruminicola; [2]): < 0.2 µg/mL
- Minimal Inhibitory Concentration (bioactivity data) (P. ruminicola; Table IV (separate study)): < 0.2
- M.I.C. (F. necrophorum; strain FN4070): 25.0 µg/mL
- Minimal Inhibitory Concentration (bioactivity data) (F. necrophorum; strain FN4070): 50.0
- M.I.C. (F. necrophorum; strain FN5052): 25.0 µg/mL
- Minimal Inhibitory Concentration (bioactivity data) (F. necrophorum; strain FN5052): 50.0
- Minimal Inhibitory Concentration (bioactivity data) (S. hyodysenteriae; strain 16-4): > 100
- Minimal Inhibitory Concentration (bioactivity data) (S. hyodysenteriae; strain B204): > 100
- bioactivity relative to the 10381b antibiotic complex or the 10381b (10381b2) component ([1]; against a variety of microorganisms): increased antimicrobial activity; also recorded: about double
- in vitro activity ranking of the individual components ([1]; conclusion from Tables III and IV): most active
